# According to US20240158348A1, “HERBICIDAL CYCLIC AMIDES N-SUBSTITUTED WITH A HALOALKYLSULFONYLANILIDE GROUP” (FMC Corporation, priority 2021, published 2024):
# Tests used:
# Type in all cases: in vivo
# [1] = system: pigweed, palmer (palmer amaranth, Amaranthus palmeri); assay: Test A preemergence, palmer amaranth; settings: 0 to 100 scale, 10 days
# From the text: (§1) Seeds of plant species selected from barnyardgrass (Echinochloa crus-galli), blackgrass (Alopecurus myosuroides), corn (Zea mays), foxtail, giant (giant foxtail, Setaria faberi), goosegrass (Eleusine indica), kochia (Bassia scoparia), oat, wild (wild oat, Avena fatua), pigweed, palmer (palmer amaranth, Amaranthus palmeri), pigweed, redroot (redroot pigweed, Amaranthus retroflexus), ragweed (common ragweed, Ambrosia artemisiifolia), ryegrass, Italian (Italian ryegrass, Lolium multiflorum), soybean (Glycine max), and wheat (Triticum aestivum) were planted into a blend of loam soil and sand and treated preemergence with a directed soil spray using test chemicals formulated in a non-phytotoxic solvent mixture which included a surfactant.
# (§2) At the same time, plants selected from these crop and weed species and also galium (catchweed bedstraw, Galium aparine) and horseweed (Erigeron canadensis) were planted in pots containing the same blend of loam soil and sand and treated with postemergence applications of test chemicals formulated in the same manner. Plants ranged in height from 2 to 10 cm and were in the one- to two-leaf stage for the postemergence treatment. Treated plants and untreated controls were maintained in a greenhouse for 10 days, after which time all treated plants were compared to untreated controls and visually evaluated for injury. Plant response ratings, summarized in Table A, are based on a 0 to 100 scale where 0 is no effect and 100 is complete control. A dash (-) response means no test result.
# soybean (Glycine max) [2] = assay: Test A postemergence, soybean; settings: 0 to 100 scale, 10 days
# From the text: as §1, §2
# [3] = system: blackgrass (Alopecurus myosuroides); assay: Test A postemergence, blackgrass; settings: 0 to 100 scale, 10 days
# From the text: as §1, §2
# kochia (Bassia scoparia) = assay: Test A preemergence, kochia; settings: pre-emergence, 240 h, 0 to 100 scale, 10 days, read-out: Plant response rating, Kochia; for pest or weed control at 31 g/ha: 31 g ai/ha; for pest or weed control at 125 g/ha: 125 g ai/ha
# From the text: as §1, §2
# [4] = system: ryegrass, Italian (Italian ryegrass, Lolium multiflorum); assay: Test A preemergence, Italian ryegrass; settings: pre-emergence, 240 h, 0 to 100 scale, 10 days, read-out: Plant response rating, Ryegrass, Italian; for pest or weed control at 31 g/ha: 31 g ai/ha; for pest or weed control at 125 g/ha: 125 g ai/ha
# From the text: as §1, §2
# [5] = system: wheat (Triticum aestivum); assay: Test A postemergence, wheat; settings: post-emergence, 240 h, 0 to 100 scale, 10 days, read-out: Plant response rating, Wheat; for plant injury at 31 g/ha: 31 g ai/ha; for plant injury at 125 g/ha: 125 g ai/ha
# From the text: as §1, §2
# soybean (Glycine max) [6] = assay: Test A preemergence, soybean; settings: 0 to 100 scale, 10 days
# From the text: as §1, §2
# [7] = system: ragweed (common ragweed, Ambrosia artemisiifolia); assay: Test A preemergence, ragweed; settings: pre-emergence, 240 h, 0 to 100 scale, 10 days, read-out: Plant response rating, Ragweed; for pest or weed control at 31 g/ha: 31 g ai/ha; for pest or weed control at 125 g/ha: 125 g ai/ha
# From the text: as §1, §2
# [8] = system: pigweed, palmer (palmer amaranth, Amaranthus palmeri); assay: Test A postemergence, palmer amaranth; settings: 0 to 100 scale, 10 days
# From the text: as §1, §2
# [9] = system: foxtail, giant (giant foxtail, Setaria faberi); assay: Test A preemergence, giant foxtail; settings: pre-emergence, 240 h, 0 to 100 scale, 10 days, read-out: Plant response rating, Foxtail, Giant; for pest or weed control at 31 g/ha: 31 g ai/ha; for pest or weed control at 125 g/ha: 125 g ai/ha
# From the text: as §1, §2
SMILES,"Plant response rating, Pigweed, Palmer ([1]; 31 g ai/ha)","Plant response rating, Pigweed, Palmer ([1]; 125 g ai/ha)","Plant response rating, Soybean (soybean (Glycine max) [2]; 31 g ai/ha)","Plant response rating, Soybean (soybean (Glycine max) [2]; 125 g ai/ha)","Plant response rating, Blackgrass ([3]; 31 g ai/ha)","Plant response rating, Blackgrass ([3]; 125 g ai/ha)",pest or weed control at 31 g/ha (kochia (Bassia scoparia)) [%],pest or weed control at 125 g/ha (kochia (Bassia scoparia)) [%],pest or weed control at 31 g/ha [4] [%],pest or weed control at 125 g/ha [4] [%],plant injury at 31 g/ha [5] [%],plant injury at 125 g/ha [5] [%],"Plant response rating, Soybean (soybean (Glycine max) [6]; 31 g ai/ha)","Plant response rating, Soybean (soybean (Glycine max) [6]; 125 g ai/ha)",pest or weed control at 31 g/ha [7] [%],pest or weed control at 125 g/ha [7] [%],"Plant response rating, Pigweed, Palmer ([8]; 31 g ai/ha)","Plant response rating, Pigweed, Palmer ([8]; 125 g ai/ha)",pest or weed control at 31 g/ha [9] [%],pest or weed control at 125 g/ha [9] [%]
"Cc1cc(C)c(N(COC(=O)C(C)(C)C)S(=O)(=O)C(F)(F)F)cc1N1CCC(OC2CCCC2)C1=O (centres unmarked) [Compound 5, [[5-[3-(cyclopentyloxy)-2-oxo-1-pyrrolidinyl]-2,4-dimethylphenyl][(trifluoromethyl)sulfonyl]amino]methyl 2,2-dimethylpropanoate]",10,50,60,70,0,0,0,60,20,90,0,50,0,20,0,40,20,70,0,50
"Cc1cc(C)c(N2CCC(OC3CCCC3)C2=O)cc1NS(=O)(=O)C(F)(F)F (centres unmarked) [Compound 6, N-[5-[3-(cyclopentyloxy)-2-oxo-1-pyrrolidinyl]-2,4-dimethylphenyl]-1,1,1-trifluoromethanesulfonamide]",70,100,70,70,0,40,30,90,80,90,60,60,50,90,30,90,50,60,100,100
"Cc1cc(C)c(N(COC(=O)C(C)(C)C)S(=O)(=O)C(F)(F)F)cc1N1CCC(OC2CC2)C1=O (centres unmarked) [Compound 7, [[5-[3-(cyclopropyloxy)-2-oxo-1-pyrrolidinyl]-2,4-dimethylphenyl][(trifluoromethyl)sulfonyl]amino]methyl 2,2-dimethylpropanoate]",50,100,90,90,20,50,60,100,100,100,30,60,20,40,30,90,30,60,90,90
"Cc1cc(C)c(N(COC(=O)C(C)(C)C)S(=O)(=O)C(F)(F)F)cc1N1CCC(OC2CCC2)C1=O (centres unmarked) [Compound 8, [[5-[3-(cyclobutyloxy)-2-oxo-1-pyrrolidinyl]-2,4-dimethylphenyl][(trifluoromethyl)sulfonyl]amino]methyl 2,2-dimethylpropanoate]",30,90,60,90,30,40,0,100,50,90,60,70,40,50,20,90,60,90,90,100
